Where two headings read alike, the source gives them in different places.

The values below come from patent US10227324B2 (Shanghai Haiyan Pharmaceutical Technology Co., Ltd., priority 2014, dated 2019).

The target of one assay is T1, PI3K-γ kinase (p110γ) (Homo sapiens, UniProt P48736).
T1 construct: purchased Invitrogen PV4786
Nature of the assay: Determination of PI3K kinase activity (ADP Transcreener, fluorescence polarization). The class given is biochemical. Conditions: Table 1; ATP 10 μM; read-out: PI3K-γ/nM (IC50 of inhibitory activity against PI3K kinase). Put shortly: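 Each 25 μL reaction held PI3K enzyme (p110α/p85α 3 ng, p110β/p85α 60 ng, p110δ/p85α 90 ng, or p110γ 100 ng), 10 μM ATP, 30 μM PIP2:PS and 2% DMSO, incubated 1 h at 25 °C. Compounds were tested in duplicate across a 3-fold series, 0.00046–1 μM as prepared. ADP was detected by Transcreener fluorescence polarization, quantified against an ADP/ATP standard curve, and IC50 fitted.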
In general terms: Fluorescence polarisation rises when a labelled molecule tumbles more slowly, as on binding a larger partner.

The next assay deals with T47D cells. Nature of the assay: Cell inhibitory activity detected by MTT assay, T47D. Format: cell-based. Conditions: Homo sapiens, T47D, 72 h, read-out: T47D cell (IC50/nM), cell growth inhibition. For orientation: Formazan colour is commonly taken as a measure of viable cells.
The target of assay [1] is T2, PI3K-α kinase (p110α/p85α) (Homo sapiens, UniProt P42336).
T2 construct: purchased Invitrogen PV4788
As to the kind of experiment: Determination of PI3K kinase activity (ADP Transcreener, fluorescence polarization). Format: biochemical. Particulars: for IC50: ATP 10 μM; for increase of inhibitory activity against PI3K-α kinase compared with BKM-120: relative to BKM-120.

Assay [2] addresses T3, PI3K-δ kinase (p110δ/p85α) (Homo sapiens, UniProt O00329).
T3 construct: purchased Millipore 14-604M
The description is as above. Particulars: Table 1; ATP 10 μM; read-out: PI3K-δ/nM (IC50 of inhibitory activity against PI3K kinase). The class given is biochemical.

The next assay relates to MCF-7 cells. Nature of the assay: Cell inhibitory activity detected by MTT assay, MCF-7. The class given is cell-based. Particulars: Homo sapiens, MCF7, 72 h, read-out: MCF-7 cell (IC50/nM), cell growth inhibition. Put shortly:
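MCF-7 cells in DMEM + 10% FBS were treated after adherence with compounds at 8 concentrations (0.0046–10 μM) for 72 h at 37 °C, 5% CO2.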

Where [3] appears, read: Table 1, read-out: PI3K-α/nM (IC50 of inhibitory activity against PI3K kinase).

T2 sequence (P42336 whole entry): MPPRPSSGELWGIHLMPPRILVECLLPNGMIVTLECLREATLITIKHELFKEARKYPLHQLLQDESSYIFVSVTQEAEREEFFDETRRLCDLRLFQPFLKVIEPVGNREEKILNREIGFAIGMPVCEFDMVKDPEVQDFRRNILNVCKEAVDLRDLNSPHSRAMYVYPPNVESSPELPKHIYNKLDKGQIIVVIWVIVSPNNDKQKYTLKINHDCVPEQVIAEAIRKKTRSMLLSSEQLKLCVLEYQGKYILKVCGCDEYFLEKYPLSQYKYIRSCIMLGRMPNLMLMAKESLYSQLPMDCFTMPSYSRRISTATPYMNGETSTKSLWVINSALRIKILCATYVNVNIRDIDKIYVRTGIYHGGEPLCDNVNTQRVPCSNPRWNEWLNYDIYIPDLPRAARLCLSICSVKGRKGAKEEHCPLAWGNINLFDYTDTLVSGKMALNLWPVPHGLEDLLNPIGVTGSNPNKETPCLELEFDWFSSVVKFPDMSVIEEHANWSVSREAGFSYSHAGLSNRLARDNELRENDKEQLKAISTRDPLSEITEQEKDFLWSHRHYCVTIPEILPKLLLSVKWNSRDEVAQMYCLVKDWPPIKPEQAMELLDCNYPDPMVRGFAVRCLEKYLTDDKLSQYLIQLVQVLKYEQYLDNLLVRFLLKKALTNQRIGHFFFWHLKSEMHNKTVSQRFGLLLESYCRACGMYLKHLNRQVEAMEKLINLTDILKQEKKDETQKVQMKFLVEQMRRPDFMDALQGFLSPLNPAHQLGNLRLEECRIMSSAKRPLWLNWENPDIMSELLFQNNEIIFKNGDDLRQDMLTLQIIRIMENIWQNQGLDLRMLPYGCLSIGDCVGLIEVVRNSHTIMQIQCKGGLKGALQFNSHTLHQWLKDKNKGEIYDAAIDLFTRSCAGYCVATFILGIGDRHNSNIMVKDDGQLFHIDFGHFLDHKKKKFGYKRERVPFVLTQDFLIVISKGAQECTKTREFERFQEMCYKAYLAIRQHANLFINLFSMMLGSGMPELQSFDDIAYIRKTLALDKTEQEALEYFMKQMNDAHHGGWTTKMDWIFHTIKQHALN
T2 sequence (P27986 whole entry partner): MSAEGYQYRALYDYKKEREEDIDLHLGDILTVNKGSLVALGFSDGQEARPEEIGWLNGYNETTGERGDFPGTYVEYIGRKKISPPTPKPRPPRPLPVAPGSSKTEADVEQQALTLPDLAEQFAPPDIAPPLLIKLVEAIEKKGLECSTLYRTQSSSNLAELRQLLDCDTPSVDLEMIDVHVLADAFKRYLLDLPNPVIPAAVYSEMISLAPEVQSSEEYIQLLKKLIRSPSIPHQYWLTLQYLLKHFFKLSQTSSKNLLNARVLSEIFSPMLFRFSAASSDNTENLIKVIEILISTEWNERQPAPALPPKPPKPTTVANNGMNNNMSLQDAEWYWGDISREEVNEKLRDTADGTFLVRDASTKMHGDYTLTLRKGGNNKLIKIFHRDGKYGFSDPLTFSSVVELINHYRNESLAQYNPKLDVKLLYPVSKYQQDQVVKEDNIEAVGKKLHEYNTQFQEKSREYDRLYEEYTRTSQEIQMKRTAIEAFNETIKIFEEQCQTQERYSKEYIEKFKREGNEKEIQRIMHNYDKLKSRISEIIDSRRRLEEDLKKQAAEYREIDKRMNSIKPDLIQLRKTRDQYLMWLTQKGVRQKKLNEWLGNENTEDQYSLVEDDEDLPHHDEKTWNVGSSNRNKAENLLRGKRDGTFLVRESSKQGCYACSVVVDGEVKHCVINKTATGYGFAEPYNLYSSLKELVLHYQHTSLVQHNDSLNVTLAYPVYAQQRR
T3 sequence (O00329 whole entry): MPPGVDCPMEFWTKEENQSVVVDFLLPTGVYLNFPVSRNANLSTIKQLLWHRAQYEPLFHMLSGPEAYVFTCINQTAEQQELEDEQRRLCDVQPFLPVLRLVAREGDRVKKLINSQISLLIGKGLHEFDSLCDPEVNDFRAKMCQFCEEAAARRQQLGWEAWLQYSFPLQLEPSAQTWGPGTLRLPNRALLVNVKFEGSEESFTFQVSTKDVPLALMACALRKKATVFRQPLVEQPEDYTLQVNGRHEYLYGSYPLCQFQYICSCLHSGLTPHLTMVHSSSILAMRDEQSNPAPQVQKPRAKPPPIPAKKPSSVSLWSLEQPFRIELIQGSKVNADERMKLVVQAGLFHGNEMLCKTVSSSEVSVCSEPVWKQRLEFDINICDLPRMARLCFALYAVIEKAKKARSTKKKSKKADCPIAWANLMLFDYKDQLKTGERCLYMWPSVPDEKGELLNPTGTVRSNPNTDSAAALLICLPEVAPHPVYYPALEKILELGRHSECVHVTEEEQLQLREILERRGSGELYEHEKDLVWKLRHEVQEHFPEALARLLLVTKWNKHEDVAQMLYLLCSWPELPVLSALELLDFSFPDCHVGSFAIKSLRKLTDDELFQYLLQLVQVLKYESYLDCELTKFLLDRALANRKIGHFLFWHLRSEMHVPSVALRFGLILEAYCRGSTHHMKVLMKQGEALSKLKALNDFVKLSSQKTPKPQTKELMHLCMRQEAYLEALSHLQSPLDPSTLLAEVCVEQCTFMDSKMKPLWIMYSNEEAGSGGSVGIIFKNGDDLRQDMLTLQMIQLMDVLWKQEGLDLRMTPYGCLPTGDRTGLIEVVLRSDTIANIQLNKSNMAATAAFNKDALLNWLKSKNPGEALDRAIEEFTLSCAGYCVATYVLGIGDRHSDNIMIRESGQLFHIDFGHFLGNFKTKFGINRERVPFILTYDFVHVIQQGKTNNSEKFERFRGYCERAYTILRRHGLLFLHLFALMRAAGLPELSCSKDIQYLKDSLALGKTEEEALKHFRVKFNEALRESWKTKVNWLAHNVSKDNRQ
T3 sequence (P27986 whole entry partner): as the sequence (P27986 whole entry partner) above
T1 sequence (P48736 whole entry): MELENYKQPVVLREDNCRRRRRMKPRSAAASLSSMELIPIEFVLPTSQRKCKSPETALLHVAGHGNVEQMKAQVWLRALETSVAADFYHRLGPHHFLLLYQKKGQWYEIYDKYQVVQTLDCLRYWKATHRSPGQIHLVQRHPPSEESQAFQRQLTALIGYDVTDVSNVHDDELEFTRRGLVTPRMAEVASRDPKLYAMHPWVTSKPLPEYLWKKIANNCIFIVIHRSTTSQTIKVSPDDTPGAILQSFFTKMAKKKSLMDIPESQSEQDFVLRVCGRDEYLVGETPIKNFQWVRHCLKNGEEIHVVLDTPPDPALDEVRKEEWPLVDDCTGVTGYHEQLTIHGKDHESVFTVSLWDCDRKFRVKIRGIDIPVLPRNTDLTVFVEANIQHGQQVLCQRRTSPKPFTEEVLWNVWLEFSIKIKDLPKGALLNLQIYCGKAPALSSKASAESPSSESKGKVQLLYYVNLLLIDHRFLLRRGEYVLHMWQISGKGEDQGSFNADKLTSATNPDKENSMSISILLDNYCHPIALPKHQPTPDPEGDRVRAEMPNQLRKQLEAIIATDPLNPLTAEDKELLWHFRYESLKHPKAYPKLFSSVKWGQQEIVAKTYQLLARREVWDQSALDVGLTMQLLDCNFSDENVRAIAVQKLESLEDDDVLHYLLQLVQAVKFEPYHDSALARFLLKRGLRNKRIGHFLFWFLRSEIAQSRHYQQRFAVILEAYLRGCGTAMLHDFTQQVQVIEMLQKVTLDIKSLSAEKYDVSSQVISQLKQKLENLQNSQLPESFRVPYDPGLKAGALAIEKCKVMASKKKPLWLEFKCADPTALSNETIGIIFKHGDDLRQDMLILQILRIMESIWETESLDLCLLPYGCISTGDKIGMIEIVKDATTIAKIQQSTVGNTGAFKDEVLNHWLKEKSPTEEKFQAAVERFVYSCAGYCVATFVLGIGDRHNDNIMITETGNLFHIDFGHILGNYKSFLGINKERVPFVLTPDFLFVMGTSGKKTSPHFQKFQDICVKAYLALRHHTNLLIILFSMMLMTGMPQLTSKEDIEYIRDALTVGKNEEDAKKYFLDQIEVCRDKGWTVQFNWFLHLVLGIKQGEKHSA

`CS(=O)(=O)C1(c2cc(-c3cnc(N)cc3C(F)(F)F)nc(N3CCOCC3)n2)CCC1` [Compound S-4]: the IC50 at PI3K-γ kinase (p110γ) amounted to 354 nM; in the assay on T47D cells it was 124 nM; in assay [1] (setting [3]) it was 12 nM; in assay [2] it was 184 nM.
Regarding `C[C@H]1COCCN1c1nc(-c2cnc(N)cc2C(F)(F)F)cc(C2(S(C)(=O)=O)CCC2)n1` [Compound S-9], the IC50 is 155 nM on PI3K-γ kinase (p110γ); 93 nM in the assay on T47D cells; 78 nM with MCF-7 cells; 5 nM in assay [1] (setting [3]); 63 nM in assay [2]. In assay [1], the “increase of inhibitory activity against PI3K-α kinase compared with BKM-120” value (“increase of inhibitory activity” below) is “about 10 times”.
Take `CS(=O)(=O)C1(c2cc(-c3cnc(N)cc3C(F)(F)F)nc(N3CCOCC3)n2)CCCC1` [Compound S-10]: the IC50 was found to be 592 nM on PI3K-γ kinase (p110γ); 218 nM in the assay on T47D cells; 340 nM in the assay on MCF-7 cells; 42 nM in assay [1] (setting [3]); 367 nM in assay [2].
In the case of `CC(C)S(=O)(=O)C1(c2cc(-c3cnc(N)cc3C(F)(F)F)nc(N3CCOC[C@@H]3C)n2)CCC1` [Compound S-13, (S)-5-(6-(1-(isopropylsulfonyl)cyclobutyl)-2-(3-methylmorpholino)pyrimidin-4-yl)-4-(trifluoromethyl)pyridin-2-amine], the IC50 on PI3K-γ kinase (p110γ) is more than 3000 nM; in the assay on T47D cells it was 244 nM; with MCF-7 cells, 153 nM; in assay [1] (setting [3]) it was 67 nM; in assay [2], 226 nM.
In the case of `CC(C)S(=O)(=O)C1(c2cc(-c3cnc(N)cc3C(F)(F)F)nc(N3CCOCC3)n2)CC1` [Compound S-18], the IC50 at PI3K-γ kinase (p110γ) came to 957 nM; in the assay on T47D cells, 160 nM; in the assay on MCF-7 cells it was 437 nM; in assay [2], 246 nM.
Take `CC(C)S(=O)(=O)C1(c2cc(-c3cnc(N)cc3C(F)(F)F)nc(N3CCOCC3)n2)CCC1` [Compound S-19]: the IC50 is more than 3000 nM at PI3K-γ kinase (p110γ), 178 nM in the assay with T47D cells, 80 nM in assay [1] (setting [3]) and 493 nM in assay [2].
Consider `Nc1cc(C(F)(F)F)c(-c2cc(C3(S(=O)(=O)c4ccccc4)CCC3)nc(N3CCOCC3)n2)cn1` [Compound S-20], for which the IC50 on PI3K-γ kinase (p110γ) worked out at 1160 nM; in the assay on T47D cells, 332 nM; in assay [1] (setting [3]), 24 nM; in assay [2] it was 42 nM.
As to `CCS(=O)(=O)C1(c2cc(-c3cnc(N)cc3C(F)(F)F)nc(N3CCOC[C@@H]3C)n2)CCC1` [Compound S-23], the IC50 at PI3K-γ kinase (p110γ) was found to be 525 nM; with T47D cells, 20 nM; with MCF-7 cells it was 246 nM; in assay [1] (setting [3]), 16 nM; in assay [2] it was 62 nM.
Turning to `C[C@H]1COCCN1c1nc(-c2cnc(N)nc2C(F)(F)F)cc(C2(S(C)(=O)=O)CCC2)n1` [Compound S-30], the IC50 on PI3K-γ kinase (p110γ) came out at 141 nM; in the assay on T47D cells, 100 nM; in the assay on MCF-7 cells, 101 nM; in assay [1] (setting [3]), 12 nM; in assay [2], 12 nM.
As to `C[C@H]1COCCN1c1nc(-c2cnc(N)cc2Cl)cc(C2(S(C)(=O)=O)CCC2)n1` [Compound S-31], the IC50 at PI3K-γ kinase (p110γ) was 148 nM; in the assay on T47D cells it was 73 nM; with MCF-7 cells it was 45 nM; in assay [1] (setting [3]) it was 12 nM; in assay [2], 103 nM.
For the compound `C[C@H]1COCCN1c1nc(-c2ccc(N)nc2)cc(C2(S(C)(=O)=O)CCC2)n1` [Compound S-32], the IC50 on PI3K-γ kinase (p110γ) came out at 923 nM; with T47D cells, 95 nM; in the assay on MCF-7 cells, 73 nM; in assay [1] (setting [3]) it was 76 nM; in assay [2] it was 161 nM.
On to `C[C@H]1COCCN1c1nc(-c2cnc(N)nc2)cc(C2(S(C)(=O)=O)CCC2)n1` [Compound S-33], for which the IC50 at PI3K-γ kinase (p110γ) was found to be 112 nM; with T47D cells it was 120 nM; in the assay with MCF-7 cells, 79 nM; in assay [1] (setting [3]) it was 12 nM; in assay [2] it was 58 nM.
For `CS(=O)(=O)C1(c2cc(-c3cnc(N)cc3Cl)nc(N3CCOCC3)n2)CC1` [Compound S-37, 4-chloro-5-(6-(1-(methylsulfonyl)cyclopropyl)-2-morpholinopyrimidin-4-yl)pyridin-2-amine], the IC50 stood at 114 nM at PI3K-γ kinase (p110γ); 202 nM in the assay with T47D cells; 258 nM in the assay on MCF-7 cells; 4 nM in assay [1] (setting [3]); 4 nM in assay [1] (Table 2, read-out: PI3K-α/nM (IC50 of inhibitory activity against PI3K-α kinase)); 84 nM in assay [2]. The “increase of inhibitory activity” value in assay [1] was “about 10 times”.
For the compound `CC(C)(c1cc(-c2cnc(N)cc2Cl)nc(N2CCOCC2)n1)S(C)(=O)=O` [Compound S-38, 4-chloro-5-(6-(2-(methylsulfonyl)prop-2-yl)-2-morpholinopyrimidin-4-yl)pyridin-2-amine], the IC50 came out at 369 nM at PI3K-γ kinase (p110γ); 244 nM in the assay with T47D cells; 180 nM with MCF-7 cells; 17 nM in assay [1] (setting [3]); 212 nM in assay [2].
`C[C@H]1COCCN1c1nc(-c2cnc(N)cc2C(F)(F)F)cc(C(C)(C)S(C)(=O)=O)n1` [Compound S-41]: the IC50 was 331 nM on PI3K-γ kinase (p110γ); 148 nM with T47D cells; 170 nM with MCF-7 cells; 6 nM in assay [1] (setting [3]); 79 nM in assay [2].
Turning to `CC(C)(c1cc(-c2cnc(N)nc2C(F)(F)F)nc(N2CCOCC2)n1)S(C)(=O)=O` [Compound S-45], the IC50 on PI3K-γ kinase (p110γ) was 78 nM; with T47D cells, 163 nM; in the assay with MCF-7 cells it was 329 nM; in assay [1] (setting [3]) it was 35 nM; in assay [2], 17 nM.
On to `CS(=O)(=O)C1(c2cc(-c3cnc(N)nc3C(F)(F)F)nc(N3CCOCC3)n2)CC1` [Compound S-46], for which the IC50 at PI3K-γ kinase (p110γ) is 96 nM; in the assay with T47D cells, 137 nM; with MCF-7 cells it was 301 nM; in assay [1] (setting [3]) it was 6 nM; in assay [2] it was 13 nM. In addition, the “increase of inhibitory activity” value in assay [1] is reported as “about 10 times”.
Regarding `CCS(=O)(=O)C1(c2cc(-c3cnc(N)cc3C(F)(F)F)nc(N3CCOCC3)n2)CCC1` [Compound S-49, 5-(6-(1-(ethylsulfonyl)cyclobutyl)-2-morpholinopyrimidin-4-yl)-4-(trifluoromethyl)pyridin-2-amine], the IC50 at PI3K-γ kinase (p110γ) was 2020 nM; in the assay with T47D cells, 208 nM; with MCF-7 cells it was 187 nM; in assay [1] (setting [3]), 17 nM; in assay [2], 85 nM.
For the compound `CS(=O)(=O)C(F)(F)c1cc(-c2cnc(N)cc2Cl)nc(N2CCOCC2)n1` [Compound S-54, 4-chloro-5-(6-(difluoro(methylsulfonyl)methyl)-2-morpholinopyrimidin-4-yl)pyridin-2-amine], the IC50 at PI3K-γ kinase (p110γ) was 199 nM; in the assay with T47D cells, 255 nM; in the assay with MCF-7 cells, 159 nM; in assay [1] (setting [3]), 12 nM; in assay [2], 145 nM.
Regarding `COC(C)(C)c1cc(-c2cnc(N)cc2C(F)(F)F)nc(N2CCOCC2)n1` [Compound S-71, 5-(6-(2-methoxypropan-2-yl)-2-morpholinopyrimidin-4-yl)-4-(trifluoromethyl) pyridin-2-amine], the IC50 stood at 1030 nM at PI3K-γ kinase (p110γ), 165 nM in the assay on T47D cells, 436 nM in the assay on MCF-7 cells and 9 nM in assay [1] (setting [3]).
`C[C@H]1COCCN1c1nc(-c2cnc(N)cc2F)cc(C2(S(C)(=O)=O)CC2)n1` [Compound S-83]: the IC50 on PI3K-γ kinase (p110γ) amounted to 204 nM; in the assay with T47D cells, 30 nM; in the assay with MCF-7 cells, 11 nM; in assay [1] (setting [3]), 20 nM.
